In brackets after ≈: the same amount, converted by molar mass.
What was measured:
Escherichia coli [1] = experiment: microbe, parasite or virus in culture
Description: Compound was tested for antimicrobial activity against Escherichia coli DC2 strain (permeability mutant)

[2] = Urinary recovery in marmosets (IV dose); format: ADME, organism-based; conditions: callithrix, urine, read-out: Recovery
Pseudomonas aeruginosa [3] = experiment: Compound was tested for antimicrobial activity against Pseudomonas aeruginosa constitutive derepressed type I beta-lactamase producer (18SH) strain; format: functional
in vivo = conditions: callithrix, serum, iv
Description: Serum T1/2 in marmosets (IV dose)

Canis familiaris = organism: Canis familiaris; conditions: dog, in vivo, iv
Staphylococcus aureus [4] = experiment: microbe, parasite or virus in culture
Description: Compound was tested for antimicrobial activity against Staphylococcus aureus penicillin sensitive Staphylococcus aureus (147N) strain

Enterobacter cloacae [5] = experiment: microbe, parasite or virus in culture
Description: Compound was tested for antimicrobial activity against Enterobacter cloacae inducible type I beta-lactamase producer (P99-) strain

Escherichia coli [6] = experiment: microbe, parasite or virus in culture; remark: listed apart in the source
Description: Compound was tested for antimicrobial activity against Escherichia coli DC0 strain (parent organism)

Enterobacter cloacae [7] = experiment: microbe, parasite or virus in culture; remark: listed apart in the source
Description: Compound was tested for antimicrobial activity against Enterobacter cloacae constitutive derepressed type I beta-lactamase producer (P99+) strain

Homo sapiens [8] = organism: Homo sapiens; experiment: Compound was tested for serum protein binding in human blood; format: functional
Staphylococcus aureus [9] = experiment: microbe, parasite or virus in culture; remark: listed apart in the source
Description: Compound was tested for antimicrobial activity against Staphylococcus aureus Oxford strain

Pseudomonas aeruginosa [10] = experiment: microbe, parasite or virus in culture
Description: Compound was tested for antimicrobial activity against Pseudomonas aeruginosa PU21 strain

Mus musculus [11] = experiment: Compound was evaluated in vivo for antibacterial activity against Pseudomonas aeruginosa (strain 101010) in mice; format: functional; conditions: read-out: PD50
Pseudomonas aeruginosa [12] = experiment: microbe, parasite or virus in culture; remark: listed apart in the source
Homo sapiens [13] = organism: Homo sapiens; experiment: Compound is evaluated for serum protein binding in human blood […]; format: functional
Mus musculus [14] = experiment: Compound was evaluated in vivo for antibacterial activity against Pseudomonas aeruginosa (strain 101010) in mice; range 1.0-6.0 mg/Kg; format: functional

Description for physchem: Dissociation constant (pKa)

Row | Compound | MIC (Escherichia coli [1]) [µg/mL] | dose excreted [2] [%] | MIC (Pseudomonas aeruginosa [3]) [µg/mL] | half-life (in vivo) [h] | pKa (physchem) | AUC (Canis familiaris) [mg/h/L] | MIC (Staphylococcus aureus [4]) [µg/mL] | MIC (Enterobacter cloacae [5]) [µg/mL] | MIC (Escherichia coli [6]) [µg/mL] | MIC (Enterobacter cloacae [7]) [µg/mL] | Activity (Homo sapiens [8]) [%] | MIC (Staphylococcus aureus [9]) [µg/mL] | MIC (Pseudomonas aeruginosa [10]) [µg/mL] | ED50 (Mus musculus [11]) [mg/kg] | MIC (Pseudomonas aeruginosa [12]) [µg/mL] | Activity (Homo sapiens [13]) [%] | PD50 (Mus musculus [14]) [µg/mL]
1 | CC(C)(O/N=C(\C(=O)N[C@@H]1C(=O)N2C(C(=O)O)=C(CNC(=O)c3ccc(O)c(O)c3)CS[C@H]12)c1csc(N)n1)C(=O)O | 0.008 (≈ 0.0129 µM) | 44.8 | 0.06 (≈ 0.0967 µM) | 1.25 | 8.5 | 27.2 | 16 (≈ 25.8 µM) | 0.0125 (≈ 0.0201 µM) | < 0.008 | 16 (≈ 25.8 µM) | 96.3 | 8 (≈ 12.9 µM) | 0.015 (≈ 0.0242 µM) |  |  |  | 
2 | CCn1cc(C(=O)NCC2=C(C(=O)O)N3C(=O)[C@@H](NC(=O)/C(=N\OC(C)(C)C(=O)O)c4csc(N)n4)[C@H]3SC2)c(=O)c2cc(O)c(O)cc21 | 0.008 (≈ 0.0112 µM) | 17.5 |  | 3.5 | 7.2 | 238.5 | 16 (≈ 22.4 µM) | 0.06 (≈ 0.0838 µM) | < 0.008 | 0.25 (≈ 0.349 µM) | 99 | 16 (≈ 22.4 µM) | 0.06 (≈ 0.0838 µM) | 0.01 | < 0.008 |  | 
3 | CO/N=C(\C(=O)N[C@@H]1C(=O)N2C(C(=O)O)=C(CSc3nc(=O)c(O)nn3C)CS[C@H]12)c1csc(N)n1 [CEFTRIAXONE] |  | 25.4 |  |  |  |  |  |  |  |  |  |  |  |  |  | 94.5 | 
4 | CC(C)(O/N=C(\C(=O)N[C@@H]1C(=O)N2C(C(=O)[O-])=C(C[n+]3ccccc3)CS[C@H]12)c1csc(N)n1)C(=O)O [CEFTAZIDIME] | 0.06 (≈ 0.11 µM) |  |  | 0.7 |  | 14 | 8 (≈ 14.6 µM) | 0.125 (≈ 0.229 µM) | 0.125 (≈ 0.229 µM) | 32 (≈ 58.5 µM) |  | 4 (≈ 7.32 µM) | 1 (≈ 1.83 µM) |  | 16 (≈ 29.3 µM) |  | 1
